Data from patent US9463192B2, “Trk-inhibiting compound” (ONO PHARMACEUTICAL CO., LTD., priority 2013, dated 2016).
Read-outs that look alike come from different tables or passages of the source.

Legend:
[1] = tested on: NGF-induced vascular hyper permeability; test: Inhibition of rat NGF-induced vascular hyper permeability; format: in vivo; details: po, 1 mg/kg orally, read-out: Inhibition rate of vascular hyper permeability (%) (time after administration (h))
Protocol: TrkA-inhibiting activity of the present compound was evaluted in vivo. The present compound dissolved in a medium was orally administered (adminstered volume: 5 mL/kg) to male CD(SD)IGS rats (7- to 9-week old, Charles River laboratories Japan, Inc.) shaved on the back. A medium was orally administered (adminstered volume: 5 mL/kg) to the control and normal groups. After 6, 12 or 14 hours of administration, 3 μg/mL of a NGF (Mouse 2.5s, Natural, Invitrogen) solution prepared in 0.1% BSA (Sigma-Aldrich)-containing saline was intracutaneously administered (dose; 50 μL/site) at 3 sites on the back of animals under halothane anesthesia. For the normal group, 0.1% BSA-containing saline was intracutaneously administered (dose; […]) at 3 sites on the back. Immediately after intracutaneous administration, 1% Evans Blue (Tokyo Chemical Industriy Co., Ltd.) was administered intravenously from tail (adminstered volume: 3 mL/kg). After 10 minutes of administration, the animals were sacrificed by bleeding due to incision of the abdominal aorta. The sites of intracutaneous administration on the back (3 sites) were excised and the skin samples were respectively transferred to the wells in a 48-well plate (Asahi Glass Co., Ltd.). Formamide (0.8 mL/well) was added to the plate and the plate was sealed and incubated overnight at 60° C. The formamide extraction solution (200 μL) was transferred to a 96-well plate and the absorbance (wavelength: 620 nm) of Evans Blue extracted in formamide was measured on an absorbance microplate reader (SpectraMAX 190, Molecular Devices Japan, K.K.). Standard samples of Evans Blue dissolved in formamide (0, 0.78, 1.56, 3.13, 6.25, 12.5, 25 and 50 µg/mL) were measured at the same time for the absorance (wavelength: 620 nm) to generate a calibration curve. Based on the calibration curve and the absorbances of samples, the concentrations of Evans Blue in the sample was calculated. The concentrations of Evans Blue for three skin samples collected from one aminal were averaged to obtain the vale for the animal. The rate of inhibition for rat NGF-induced vascular hyper permeability of the present compound was calculated according to the following Equation: Inhibition rate (%)={1−(AX−AN)/(AC−AN)}×100 [Eq. 3]
wherein AX: the concentration of Evans Blue of the test compound (an average value of 3 samples from one animal);
AN: the concentration of Evans Blue of the normal group (an average value of 3 samples from one animal);
AC: the concentration of Evans Blue of the control group (an average value of 3 samples from one animal).

human TrkA = human TrkA (Homo sapiens (Human), UniProt P04629); test: Measurement of TrkA kinase-inhibiting activity using human TrkA-expressing cells; format: cell-based; details: CHO-K1 cells expressing human TrkA and NFAT-bla; NGF 50 ng/ml; TR-FRET reporter
Protocol: TrkA kinase-inhibiting activity in cell systems was measured using CHO-K1 cells exressing human TrkA and NFAT-bla (CellSenser™ TrkA-NFAT-bla CHO-K1 cells, Invitrogen).
On the day before the assay, CellSenser™ TrkA-NFAT-bla CHO-K1 cells were suspended in an assay medium (Opti-MEM1 Reduced Serum Medium (Invitrogen) containing 0.5% dialysed fetal bovine serum (Invitrogen), 0.1 mM nonessential amino acids (Invitrogen), 1 mM sodium pyruvate (Invitrogen) and antibiotics (100 U/mL penicillin and 100 µg/mL streptomycin (Invitrogen))) and plated at a density of 2.4×10^4 cells/40 μL/well in a 96-well clear bottom plate (Corning, Catalogue No.: 3882). In some wells were added only the assay medium at 40 μL/well (Cell-free). On the day of the assay, 10 mM of the present compound (DMSO solution) was distributed in a 96-well plate (Costar, Catalogue No.: 3363) and serially diluted with DMSO with the geometrical ratio of 3. The serial dilutions were diluted with the assay medium to 100-fold to prepare a solution of the present compound with a 10-fold concentration (DMSO concentration: 1%). To the plate where cells were plated was added the present compound at 5 µL/well and the plate was incubated in a CO2 incubator with 5% CO2, 95% Air at 37° C. for 30 minutes. For a control and a blank, the assay medium containing 1% DMSO was added at 5 µL/well in place of the solution of the present compound. Subsequently the assay medium containing NGF (Mouse 2.5s, Natural, Invitrogen) was added to the plate at 5 µL/well (final concentration of NGF: 50 ng/ml) and the plate was incubated in a CO2 incubator with 5% CO2, 95% Air at 37° C. for 5 hours. For the blank group, the assay medium was added in place of NGF at 5 µL/well. A reporter assay detection reagent ([…]) was added to the plate which was then incubated in the dark at room temperature for 120 minutes. The reporter assay detection reagent was prepared from LiveBLAzer™-FRET B/G Loading Kit (Invitrogen). On the Analyst GT (Molecular Devices Japan, K.K.) the wells were irradiated with excitation light at 405 nm and the fluorescence intensities at 460 nm and 530 nm were measured. The time resolved fluorescence resonance energy transfer (TR-FRET) ratio of each well was calculated according to the following Equation 1: TR-FRET ratio=(A460x−A460F)/(A530x−A530F) [Eq. 1]
A460x: the fluorescence intensity at 460 nm of the present compound, control or blank;
A460F: the fluorescence intensity at 460 nm of the Cell-free;
A530x: the fluorescence intensity at 530 nm of the present compound, control or blank; and
A530x: the fluorescence intensity at 530 nm of the Cell-free.
The TR-FRET inhibition rate (%) of the present compound was calculated according to the following Equation 2: Inhibition rate (%)={1−(AX−AB)/(AC−AB)}×100 [Eq. 2]
wherein AX: the TR-FRET ratio when the present compound is added;
AB: the TR-FRET of the blank; and
AC: the TR-FRET of the control.
The IC50 value by the present compound was calculated from the inhibition curve based on the inhibition rate of the present compound at respective concentrations.

Chain of human TrkA (P04629 33-796): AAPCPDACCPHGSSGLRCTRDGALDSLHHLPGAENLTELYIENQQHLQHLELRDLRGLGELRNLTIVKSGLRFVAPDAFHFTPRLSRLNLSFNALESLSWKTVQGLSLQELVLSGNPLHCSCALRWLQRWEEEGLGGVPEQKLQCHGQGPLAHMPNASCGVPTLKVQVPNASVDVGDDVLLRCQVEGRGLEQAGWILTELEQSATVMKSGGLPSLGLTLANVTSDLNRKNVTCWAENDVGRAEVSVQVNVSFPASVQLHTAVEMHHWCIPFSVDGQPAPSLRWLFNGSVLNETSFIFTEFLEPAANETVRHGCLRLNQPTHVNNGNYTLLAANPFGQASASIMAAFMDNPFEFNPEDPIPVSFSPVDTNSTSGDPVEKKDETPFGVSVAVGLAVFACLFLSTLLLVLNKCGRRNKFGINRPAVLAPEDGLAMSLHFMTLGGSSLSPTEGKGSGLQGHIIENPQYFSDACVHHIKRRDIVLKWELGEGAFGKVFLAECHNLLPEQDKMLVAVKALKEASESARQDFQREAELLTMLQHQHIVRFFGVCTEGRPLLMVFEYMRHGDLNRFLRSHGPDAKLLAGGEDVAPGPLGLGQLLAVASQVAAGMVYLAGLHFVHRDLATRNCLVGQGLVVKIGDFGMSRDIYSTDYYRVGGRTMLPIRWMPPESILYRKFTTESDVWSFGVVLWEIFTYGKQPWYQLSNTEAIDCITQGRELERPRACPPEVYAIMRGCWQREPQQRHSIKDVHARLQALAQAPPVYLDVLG

Row | IC50 (human TrkA) | Compound | inhibition in vivo at 1 mg/kg ([1]; 14 h after administration) | inhibition in vivo at 1 mg/kg ([1]; 12 h after administration)
1 | 0.001 µM | O=C(Nc1cnc(Oc2ccc(-c3cnn4ccc(N5CCC5)nc34)cc2)nc1)Nc1cc(C(F)(F)F)ccc1-c1cccnc1 [Example 21-1, 1-(2-(4-(5-(azetidin-1-yl)pyrazolo[1,5-a]pyrimidin-3-yl)phenoxy)pyrimidin-5-yl)-3-(2-(pyridin-3-yl)-5-(trifluoromethyl)phenyl)urea] | 87% | –
2 | 0.001 µM | Cn1nccc1-c1ccc(C(F)(F)F)cc1NC(=O)Nc1cnc(Oc2ccc(-c3cnn4ccc(N5CCC5)nc34)cc2)nc1 [Example 21-2, 1-(2-(4-(5-(azetidin-1-yl)pyrazolo[1,5-a]pyrimidin-3-yl)phenoxy)pyrimidin-5-yl)-3-(2-(1-methyl-H-pyrazol-5-yl)-5-(trifluoromethyl)phenyl)urea] | 100% | –
3 | 0.001 µM | COc1ccn2ncc(-c3ccc(Oc4ncc(NC(=O)Nc5cc(C(F)(F)F)ccc5-c5cccnc5)cn4)cc3)c2n1 [Example 21-9, 1-(2-(4-(5-methoxypyrazolo[1,5-a]pyrimidin-3-yl)phenoxy)pyrimidin-5-yl)-3-(2-(pyridin-3-yl)-5-(trifluoromethyl)phenyl)urea] | 100% | –
4 | 0.001 µM | O=C(Nc1cnc(Oc2ccc(-c3cnn4cccnc34)cc2)nc1)Nc1cc(C(F)(F)F)ccc1-c1cccnc1 [Example 21-13, 1-(2-(4-(pyrazolo[1,5-a]pyrimidin-3-yl)phenoxy)pyrimidin-5-yl)-3-(2-(pyridin-3-yl)-5-(trifluoromethyl)phenyl)urea] | – | 100%
5 | 0.001 µM | CN(C)c1ccn2ncc(-c3ccc(Oc4ncc(NC(=O)Nc5cc(C(F)(F)F)ccc5-c5cccnc5)cn4)cc3)c2n1 [Example 21-37, 1-(2-{4-[5-(dimethylamino)pyrazolo[1,5-a]pyrimidin-3-yl]phenoxy}-5-pyrimidinyl)-3-[2-(3-pyridinyl)-5-(trifluoromethyl)phenyl]urea] | 98% | –

The remaining lines, values behind:

Row | Compound | IC50 (human TrkA) | inhibition in vivo at 1 mg/kg ([1]; 14 h after administration) | inhibition in vivo at 1 mg/kg ([1]; 12 h after administration)
6 | Nc1ncc(C(F)(F)F)cc1-c1ccc(Oc2ncc(NC(=O)Nc3cc(C(F)(F)F)ccc3-n3ccc(C(F)(F)F)n3)cn2)cc1 [Example 15-52, 1-(2-{4-[2-amino-5-(trifluoromethyl)-3-pyridinyl]phenoxy}-5-pyrimidinyl)-3-{5-(trifluoromethyl)-2-[3-(trifluoromethyl)-1H-pyrazol-1-yl]phenyl}urea] | 0.004 µM | 96% | –
7 | Nc1ncc(Cl)cc1-c1ccc(Oc2ncc(NC(=O)Nc3cc(C(F)(F)F)ccc3-c3ccccc3)cn2)cc1 [Example 15-55, 1-{2-[4-(2-amino-5-chloro-3-pyridinyl)phenoxy]-5-pyrimidinyl}-3-[4-(trifluoromethyl)-2-biphenylyl]urea] | 0.004 µM | 94% | –
8 | Nc1ncc(F)cc1-c1ccc(Oc2ncc(NC(=O)Nc3cc(C(F)(F)F)ccc3-c3ccccc3)cn2)cc1 [Example 15-58, 1-{2-[4-(2-amino-5-fluoro-3-pyridinyl)phenoxy]-5-pyrimidinyl}-3-[4-(trifluoromethyl)-2-biphenylyl]urea] | 0.002 µM | 100% | –
9 | Nc1ncc(Cl)cc1-c1ccc(Oc2ncc(NC(=O)Nc3cc(C(F)(F)F)ccc3-n3cc(Cl)cn3)cn2)cc1 [Example 15-63, 1-{2-[4-(2-amino-5-chloro-3-pyridinyl)phenoxy]-5-pyrimidinyl}-3-[2-(4-chloro-1H-pyrazol-1-yl)-5-(trifluoromethyl)phenyl]urea] | 0.002 µM | 99% | –
10 | Nc1ncc(Cl)cc1-c1ccc(Oc2ncc(NC(=O)Nc3cc(Cl)ccc3-n3ccc(C(F)(F)F)n3)cn2)cc1 [Example 15-71, 1-{2-[4-(2-amino-5-chloro-3-pyridinyl)phenoxy]-5-pyrimidinyl}-3-{5-chloro-2-[3-(trifluoromethyl)-1H-pyrazol-1-yl]phenyl}urea] | 0.002 µM | 100% | –
11 | Nc1ncc(Cl)cc1-c1ccc(Oc2ncc(NC(=O)Nc3ccc(C(F)(F)F)cc3C(F)(F)F)cn2)cc1 [Example 15-77, 1-{2-[4-(2-amino-5-chloro-3-pyridinyl)phenoxy]-5-pyrimidinyl}-3-[2,4-bis(trifluoromethyl)phenyl]urea] | 0.002 µM | 100% | –
12 | Nc1ncc(C(F)(F)F)cc1-c1ccc(Oc2ncc(NC(=O)Nc3cc(C(F)(F)F)ccc3-n3cc(Cl)cn3)cn2)cc1 [Example 15-87, 1-(2-{4-[2-amino-5-(trifluoromethyl)-3-pyridinyl]phenoxy}-5-pyrimidinyl)-3-[2-(4-chloro-1H-pyrazol-1-yl)-5-(trifluoromethyl)phenyl]urea] | 0.001 µM | 86% | –
13 | CS(=O)(=O)c1ccc(C(F)(F)F)cc1NC(=O)Nc1cnc(Oc2ccc(-c3cc(F)cnc3N)cc2)nc1 [Example 15-96, 1-{2-[4-(2-amino-5-fluoro-3-pyridinyl)phenoxy]-5-pyrimidinyl}-3-[2-(methylsulfonyl)-5-(trifluoromethyl)phenyl]urea] | 0.0004 µM | 90% | –
14 | CS(=O)(=O)c1ccc(C(F)(F)F)cc1NC(=O)Nc1cnc(Oc2ccc(-c3cc(C(F)(F)F)cnc3N)cc2)nc1 [Example 15-98, 1-(2-{4-[2-amino-5-(trifluoromethyl)-3-pyridinyl]phenoxy}-5-pyrimidinyl)-3-[2-(methylsulfonyl)-5-(trifluoromethyl)phenyl]urea] | 0.0008 µM | 80% | –
15 | CS(=O)(=O)c1ccc(C(F)(F)F)cc1NC(=O)Nc1cnc(Oc2ccc(-c3cc(Cl)cnc3N)cc2)nc1 [Example 15-104, 1-{2-[4-(2-amino-5-chloro-3-pyridinyl)phenoxy]-5-pyrimidinyl}-3-[2-(methylsulfonyl)-5-(trifluoromethyl)phenyl]urea] | 0.0005 µM | 100% | –
16 | CN(C)S(=O)(=O)c1ccc(C(F)(F)F)cc1NC(=O)Nc1cnc(Oc2ccc(-c3cc(C(F)(F)F)cnc3N)cc2)nc1 [Example 15-105, 2-{[(2-{4-[2-amino-5-(trifluoromethyl)-3-pyridinyl]phenoxy}-5-pyrimidinyl)carbamoyl]amino}-N,N-dimethyl-4-(trifluoromethyl)benzenesulfonamide] | 0.004 µM | 100% | –
